Laboratory results taken from US8802597B2, “Herbicidal pyrimidines” (E I du Pont de Nemours and Company, priority 2003, dated 2014).

What was measured:
Format in all cases: in vivo
[1] = system: duck salad (Heteranthera limosa); experiment: Test B flooded paddy test; conditions: Flood, scale 0 to 100
Protocol: (§1) At the same time, plants selected from these crop and weed species and also blackgrass (Alopecurus myosuroides) and wild oat (Avena fatua) were treated with postemergence applications of test chemicals formulated in the same manner. Plants ranged in height from 2 to 18 cm (1- to 4-leaf stage) for postemergence treatments. Plant species in the flooded paddy test consisted of rice (Oryza sativa), umbrella sedge (Cyperus difformis), duck salad (Heteranthera limosa) and barnyardgrass (Echinochloa crus-galli) grown to the 2-leaf stage for testing. Treated plants and controls were maintained in a greenhouse for 13 to 15 days, after which time all species were compared to controls and visually evaluated. Plant response ratings, summarized in Table B, are based on a scale of 0 to 100 where 0 is no effect and 100 is complete control. A dash (-) response means no test result.

[2] = system: barnyardgrass (Echinochloa crus-galli); experiment: Test B flooded paddy test; conditions: Flood, scale 0 to 100
Protocol: as §1

[3] = system: umbrella sedge (Cyperus difformis); experiment: Test B flooded paddy test; conditions: Flood, scale 0 to 100
Protocol: as §1

rice (Oryza sativa) = experiment: Test B flooded paddy test; conditions: Flood, scale 0 to 100
Protocol: as §1

[4] = system: crabgrass (Digitaria sanguinalis); experiment: Test A pre/postemergence
Method in brief: (§2)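 Visual injury scores on a 0–100 scale, 100 being complete control, were assigned roughly ten days after treatment by comparison with untreated greenhouse controls. Test chemicals, formulated with surfactant in non-phytotoxic solvent, were sprayed onto soil preemergence and onto 1–2-leaf plants 2–10 cm tall postemergence.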

[5] = system: barnyardgrass (Echinochloa crus-galli); experiment: Test A pre/postemergence
Method in brief: as §2

[6] = system: morningglory (Ipomoea spp.); experiment: Test A pre/postemergence
Method in brief: as §2

[7] = system: giant foxtail (Setaria faberi); experiment: Test A pre/postemergence
Method in brief: as §2

[8] = system: velvetleaf (Abutilon theophrasti); experiment: Test A pre/postemergence
Method in brief: as §2

[9] = system: redroot pigweed (Amaranthus retroflexus); experiment: Test A pre/postemergence
Method in brief: as §2

[10] = system: junglerice (Echinochloa colona); experiment: Test E flooded paddy water application; conditions: Flood, 21 days, scale 0 to 100 (0 no effect, 100 complete control)
Method in brief: (§3)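 Weeds sown in sterilized Tama silt loam (2.6% organic matter), greenhouse 29.5/26.7° C, 16-h photoperiod; at 2.0–2.5-leaf stage pots flooded to 3 cm and compound added to paddy water. Visual rating vs untreated controls after 21 days, 0 (no effect) to 100 (complete control).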

[11] = system: barnyardgrass (Echinochloa crus-galli); experiment: Test E flooded paddy water application; conditions: Flood, 21 days, scale 0 to 100 (0 no effect, 100 complete control)
Method in brief: as §3

[12] = system: purple redstem (Ammannia coccinea); experiment: Test E flooded paddy water application; conditions: Flood, 21 days, scale 0 to 100 (0 no effect, 100 complete control)
Method in brief: as §3

[13] = system: smallflower umbrella sedge (Cyperus difformis); experiment: Test E flooded paddy water application; conditions: Flood, 21 days, scale 0 to 100 (0 no effect, 100 complete control)
Method in brief: as §3

[14] = system: water seeded rice seedlings (Oryza sativa cv. ‘Japonica-M202’); experiment: Test E flooded paddy water application; conditions: Flood, 21 days, scale 0 to 100 (0 no effect, 100 complete control)
Method in brief: as §3

[15] = system: early watergrass (Echinochloa oryzoides); experiment: Test E flooded paddy water application; conditions: Flood, 21 days, scale 0 to 100 (0 no effect, 100 complete control)
Method in brief: as §3

[16] = system: transplanted rice seedlings (Oryza sativa cv. ‘Japonica-M202’); experiment: Test E flooded paddy water application; conditions: Flood, 21 days, scale 0 to 100 (0 no effect, 100 complete control)
Method in brief: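 Response scored visually on a 0–100 scale (100 = complete control) at 21 days against untreated pots. Treatment was into paddy water 3 cm deep over silt loam, with plants at the 2.0–2.5-leaf stage, grown under 16-h light at 29.5/26.7 °C day/night.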

[17] = system: bearded (brdd.) sprangletop (Leptochloa fusca ssp. fascicularis); experiment: Test E flooded paddy water application; conditions: Flood, 21 days, scale 0 to 100 (0 no effect, 100 complete control)
Method in brief: as §3

[18] = system: rice flatsedge (Cyperus iria); experiment: Test E flooded paddy water application; conditions: Flood, 21 days, scale 0 to 100 (0 no effect, 100 complete control)
Method in brief: as §3

[19] = system: late watergrass (Echinochloa oryzicola); experiment: Test E flooded paddy water application; conditions: Flood, 21 days, scale 0 to 100 (0 no effect, 100 complete control)
Method in brief: as §3

[20] = system: ducksalad (Heteranthera limosa); experiment: Test E flooded paddy water application; conditions: Flood, 21 days, scale 0 to 100 (0 no effect, 100 complete control)
Method in brief: as §3

[21] = Postemergence, 125 g ai/ha, 0 to 100 scale (0 no effect, 100 complete control)
[22] = Postemergence, 500 g ai/ha, 0 to 100 scale (0 no effect, 100 complete control)
[23] = Preemergence, 125 g ai/ha, 0 to 100 scale where 0 is no effect and 100 is complete control, approximately ten days
[24] = Preemergence, 500 g ai/ha, 0 to 100 scale where 0 is no effect and 100 is complete control, approximately ten days

SMILES: Nc1nc(C2CC2)nc(C(=O)OCc2ccc(Cl)cc2)c1Cl [Compound 80]
- Plant response rating, Ducksalad ([1]; 125 g ai/ha): 50
- Plant response rating, Ducksalad ([1]; 500 g ai/ha): 70
- Plant response rating, Barnyardgrass ([2]; 125 g ai/ha): 0
- Plant response rating, Barnyardgrass ([2]; 500 g ai/ha): 50
- Plant response rating, Sedge, Umbrella ([3]; 125 g ai/ha): 20
- Plant response rating, Sedge, Umbrella ([3]; 500 g ai/ha): 70
- Plant response rating, Rice (rice (Oryza sativa); 125 g ai/ha): 0
- Plant response rating, Rice (rice (Oryza sativa); 500 g ai/ha): 50
- Plant response rating, Crabgrass [4, 21]: 30
- Plant response rating, Crabgrass [4, 22]: 70
- Plant response rating, Crabgrass [4, 23]: 45
- Plant response rating, Crabgrass [4, 24]: 85
- Plant response rating, Barnyardgrass [5, 21]: 55
- Plant response rating, Barnyardgrass [5, 22]: 90
- Plant response rating, Barnyardgrass [5, 23]: 10
- Plant response rating, Barnyardgrass [5, 24]: 80
- Plant response rating, Morningglory [6, 21]: 90
- Plant response rating, Morningglory [6, 22]: 95
- Plant response rating, Morningglory [6, 23]: 90
- Plant response rating, Morningglory [6, 24]: 100
- Plant response rating, Foxtail, Giant [7, 21]: 70
- Plant response rating, Foxtail, Giant [7, 22]: 90
- Plant response rating, Foxtail, Giant [7, 23]: 15
- Plant response rating, Foxtail, Giant [7, 24]: 70
- Plant response rating, Velvetleaf [8, 21]: 65
- Plant response rating, Velvetleaf [8, 22]: 90
- Plant response rating, Velvetleaf [8, 23]: 75
- Plant response rating, Velvetleaf [8, 24]: 90
- Plant response rating, Pigweed [9, 21]: 65
- Plant response rating, Pigweed [9, 22]: 95
- Plant response rating, Pigweed [9, 23]: 80
- Plant response rating, Pigweed [9, 24]: 90

SMILES: CCOC(=O)c1nc(-c2ccc(C)cc2)nc(N)c1Cl [Compound 62]
- Plant response rating, Crabgrass [4, 21]: 0
- Plant response rating, Crabgrass [4, 22]: 35
- Plant response rating, Crabgrass [4, 23]: 0
- Plant response rating, Crabgrass [4, 24]: 60
- Plant response rating, Barnyardgrass [5, 21]: 15
- Plant response rating, Barnyardgrass [5, 22]: 80
- Plant response rating, Barnyardgrass [5, 23]: 0
- Plant response rating, Barnyardgrass [5, 24]: 45
- Plant response rating, Morningglory [6, 21]: 10
- Plant response rating, Morningglory [6, 22]: 35
- Plant response rating, Morningglory [6, 23]: 0
- Plant response rating, Morningglory [6, 24]: 35
- Plant response rating, Foxtail, Giant [7, 21]: 0
- Plant response rating, Foxtail, Giant [7, 22]: 80
- Plant response rating, Foxtail, Giant [7, 23]: 0
- Plant response rating, Foxtail, Giant [7, 24]: 0
- Plant response rating, Velvetleaf [8, 21]: 90
- Plant response rating, Velvetleaf [8, 22]: 95
- Plant response rating, Velvetleaf [8, 23]: 0
- Plant response rating, Velvetleaf [8, 24]: 75
- Plant response rating, Pigweed [9, 21]: 30
- Plant response rating, Pigweed [9, 22]: 60
- Plant response rating, Pigweed [9, 23]: 0
- Plant response rating, Pigweed [9, 24]: 75
- Junglerice plant response rating ([10]; 32 g ai/ha): 20
- Junglerice plant response rating ([10]; 64 g ai/ha): 30
- Junglerice plant response rating ([10]; 125 g ai/ha): 40
- Junglerice plant response rating ([10]; 250 g ai/ha): 50
- Junglerice plant response rating ([10]; 500 g ai/ha): 65
- Barnyardgrass plant response rating ([11]; 32 g ai/ha): 0
- Barnyardgrass plant response rating ([11]; 64 g ai/ha): 0
- Barnyardgrass plant response rating ([11]; 125 g ai/ha): 0
- Barnyardgrass plant response rating ([11]; 250 g ai/ha): 50
- Barnyardgrass plant response rating ([11]; 500 g ai/ha): 100
- Redstem plant response rating ([12]; 32 g ai/ha): 75
- Redstem plant response rating ([12]; 64 g ai/ha): 85
- Redstem plant response rating ([12]; 125 g ai/ha): 85
- Redstem plant response rating ([12]; 250 g ai/ha): 95
- Redstem plant response rating ([12]; 500 g ai/ha): 100
- Sedge, Umbrella plant response rating ([13]; 32 g ai/ha): 70
- Sedge, Umbrella plant response rating ([13]; 64 g ai/ha): 80
- Sedge, Umbrella plant response rating ([13]; 125 g ai/ha): 95
- Sedge, Umbrella plant response rating ([13]; 250 g ai/ha): 100
- Sedge, Umbrella plant response rating ([13]; 500 g ai/ha): 100
- Rice, Water Seeded plant response rating ([14]; 32 g ai/ha): 0
- Rice, Water Seeded plant response rating ([14]; 64 g ai/ha): 0
- Rice, Water Seeded plant response rating ([14]; 125 g ai/ha): 0
- Rice, Water Seeded plant response rating ([14]; 250 g ai/ha): 10
- Rice, Water Seeded plant response rating ([14]; 500 g ai/ha): 60
- Watergrass, Early plant response rating ([15]; 32 g ai/ha): 0
- Watergrass, Early plant response rating ([15]; 64 g ai/ha): 0
- Watergrass, Early plant response rating ([15]; 125 g ai/ha): 0
- Watergrass, Early plant response rating ([15]; 250 g ai/ha): 0
- Watergrass, Early plant response rating ([15]; 500 g ai/ha): 0
- Rice, Transplanted plant response rating ([16]; 32 g ai/ha): 0
- Rice, Transplanted plant response rating ([16]; 64 g ai/ha): 0
- Rice, Transplanted plant response rating ([16]; 125 g ai/ha): 0
- Rice, Transplanted plant response rating ([16]; 250 g ai/ha): 0
- Rice, Transplanted plant response rating ([16]; 500 g ai/ha): 30
- Sprangletop, Brdd. plant response rating ([17]; 32 g ai/ha): 0
- Sprangletop, Brdd. plant response rating ([17]; 64 g ai/ha): 0
- Sprangletop, Brdd. plant response rating ([17]; 125 g ai/ha): 30
- Sprangletop, Brdd. plant response rating ([17]; 250 g ai/ha): 45
- Sprangletop, Brdd. plant response rating ([17]; 500 g ai/ha): 75
- Flatsedge, Rice plant response rating ([18]; 32 g ai/ha): 0
- Flatsedge, Rice plant response rating ([18]; 64 g ai/ha): 0
- Flatsedge, Rice plant response rating ([18]; 125 g ai/ha): 45
- Flatsedge, Rice plant response rating ([18]; 250 g ai/ha): 65
- Flatsedge, Rice plant response rating ([18]; 500 g ai/ha): 100
- Watergrass, Late plant response rating ([19]; 32 g ai/ha): 0
- Watergrass, Late plant response rating ([19]; 64 g ai/ha): 20
- Watergrass, Late plant response rating ([19]; 125 g ai/ha): 20
- Watergrass, Late plant response rating ([19]; 250 g ai/ha): 20
- Watergrass, Late plant response rating ([19]; 500 g ai/ha): 20
- Ducksalad plant response rating ([20]; 32 g ai/ha): 100
- Ducksalad plant response rating ([20]; 64 g ai/ha): 100
- Ducksalad plant response rating ([20]; 125 g ai/ha): 100
- Ducksalad plant response rating ([20]; 250 g ai/ha): 100
- Ducksalad plant response rating ([20]; 500 g ai/ha): 100
